Assay results as given in US10820591B2, “Substituted sulfonyl amides for controlling animal pests” (Bayer Aktiengesellschaft, priority 2016, dated 2020).

What was measured:
Meloidogyne incognita = Meloidogyne incognita test (sand, lettuce, gall formation); assay type: in vivo; conditions: Meloidogyne incognita, 336 h, 20 ppm, after 14 days; read-out: nematicidal efficacy (formation of galls)
Procedure, shortened: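 Vessels held sand, diluted compound solution, M. incognita egg/larvae suspension and lettuce seeds, and the plants grew for 14 days. Efficacy in % came from root gall formation: 100% means no galls, 0% means galls equal to the untreated control.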

Myzus persicae = Myzus persicae oral test; assay type: in vivo; conditions: 120 h, 20 ppm, after 5 days, read-out: efficacy
Method: Myzus persicae—Oral Test [table] To produce a suitable active compound preparation, 1 part by weight of active compound is dissolved with the stated parts by weight of solvent and made up to the desired concentration with water. 50 μl of the active compound preparation are transferred into microtitre plates and made up to a final volume of 200 μl with 150 μl of IPL41 insect medium (33%+15% sugar). Subsequently, the plates are sealed with parafilm, which a mixed population of green peach aphids (Myzus persicae) within a second microtitre plate is able to puncture and imbibe the solution through it. After 5 days, the efficacy in % is determined. 100% means that all the aphids have been killed; 0% means that no aphids have been killed.

SMILES | pest or weed control at 20 ppm (Meloidogyne incognita) [%] | pest or weed control at 20 ppm (Myzus persicae) [%]
CCOc1ccc(Cl)c(S(=O)(=O)NC(=O)c2nc(Cl)n(C3CC3C(F)(F)F)c2Cl)c1 (centres unmarked) [I-459] | 100 | 
CC(C)Oc1ccc(Cl)c(S(=O)(=O)NC(=O)c2nc(Cl)n(C3CC3C(F)(F)F)c2Cl)c1 (centres unmarked) [I-460] | 100 | 70
O=C(NS(=O)(=O)c1c(Cl)cccc1Cl)c1nc(Cl)n(C2CC2C(F)(F)F)c1Cl (centres unmarked) [I-461] | 100 | 
Cc1ccccc1S(=O)(=O)NC(=O)c1nc(Cl)n(C2CC2C(F)(F)F)c1Cl (centres unmarked) [I-462] | 100 | 
CSc1cccc(Cl)c1S(=O)(=O)NC(=O)c1nc(Cl)n(C2CC2C(F)(F)F)c1Cl (centres unmarked) [I-463] | 100 | 
COc1ccc(Cl)cc1S(=O)(=O)NC(=O)c1nc(Cl)n(C2CC2C(F)(F)F)c1Cl (centres unmarked) [I-464] | 90 | 
COc1ccc(Br)c(S(=O)(=O)NC(=O)c2nc(Cl)n(C3CC3C(F)(F)F)c2Cl)c1 (centres unmarked) [I-465] | 100 | 
CCc1ccc(C)c(S(=O)(=O)NC(=O)c2nc(Cl)n(C3CC3C(F)(F)F)c2Cl)c1 (centres unmarked) [I-466] | 100 | 
COc1ccc(F)c(S(=O)(=O)NC(=O)c2nc(Cl)n(C3CC3C(F)(F)F)c2Cl)c1 (centres unmarked) [I-467] | 100 | 
O=C(NS(=O)(=O)c1cc(C(F)(F)F)ccc1Cl)c1nc(Cl)n(C2CC2C(F)(F)F)c1Cl (centres unmarked) [I-468] | 100 | 
O=C(NS(=O)(=O)c1ccccc1Cl)c1nc(Cl)n(C2CC2C(F)(F)F)c1Cl (centres unmarked) [I-469] | 100 | 
CC(C)S(=O)(=O)NC(=O)c1cn(C)c(C(F)(F)F)n1 [I-471] | 90 | 
Cn1cc(C(=O)NS(=O)(=O)c2ccccc2Cl)nc1C(F)(F)F [I-472] | 90 | 
Cn1cc(C(=O)NS(=O)(=O)c2ccccc2Br)nc1C(F)(F)F [I-473] | 90 | 
Cc1ccccc1S(=O)(=O)NC(=O)c1cn(C)c(C(F)(F)F)n1 [I-474] | 100 | 
COc1ccc(Cl)c(S(=O)(=O)NC(=O)c2cn(C)c(C(F)(F)F)n2)c1 [I-475] | 90 | 

SMILES | pest or weed control at 20 ppm (Meloidogyne incognita) [%] | pest or weed control at 20 ppm (Myzus persicae) [%]
CC(C)Sc1nc(C(=O)NS(=O)(=O)c2ccccc2Cl)cn1C [I-476] | 70 | 
Cc1ccccc1S(=O)(=O)NC(=O)c1cn(C)c(SC(C)C)n1 [I-477] | 90 | 
COc1ccccc1S(=O)(=O)NC(=O)c1cn(C)c(SC(C)C)n1 [I-478] | 70 | 
COc1ccc(Cl)c(S(=O)(=O)NC(=O)c2ncn(-c3ccccc3Cl)c2C(F)F)c1 [I-479] | 90 | 
COc1ccc(Cl)c(S(=O)(=O)NC(=O)c2ncn(-c3cccc(Cl)c3)c2C(F)F)c1 [I-480] | 90 | 
COc1ccc(Cl)c(S(=O)(=O)NC(=O)c2ncn(-c3ccc(Cl)cc3)c2C(F)F)c1 [I-481] | 70 | 
COc1ccc(Cl)c(S(=O)(=O)NC(=O)c2ncn(-c3ccc(Cl)cc3Cl)c2C(F)F)c1 [I-482] | 90 | 
COc1ccc(Cl)c(S(=O)(=O)NC(=O)c2ncn(-c3ccc(Cl)cc3Cl)c2C(C)C)c1 [I-484] | 70 | 
COc1ccc(Cl)c(S(=O)(=O)NC(=O)c2ncn(-c3cccc(Cl)c3)c2C2CC2)c1 [I-485] | 90 | 
COc1ccc(Cl)c(S(=O)(=O)NC(=O)c2ncn(-c3ccc(Cl)cc3Cl)c2C2CC2)c1 [I-486] | 70 | 
COc1ccc(Cl)c(S(=O)(=O)NC(=O)c2ncn(-c3c(F)cccc3F)c2C(F)F)c1 [I-487] | 100 | 
COc1ccc(Cl)c(S(=O)(=O)NC(=O)c2ncn(-c3cccc(Cl)c3)c2C(C)C)c1 [I-488] | 90 | 
COc1ccc(Cl)c(S(=O)(=O)NC(=O)c2ncn(-c3ccccc3Cl)c2C2CC2)c1 [I-489] | 90 | 
COc1ccc(Cl)c(S(=O)(=O)NC(=O)c2ncn(-c3cc(F)ccc3F)c2C2CC2)c1 [I-490] | 90 | 
COc1ccc(Cl)c(S(=O)(=O)NC(=O)c2ncn(-c3cc(F)ccc3F)c2C(C)C)c1 [I-491] | 100 | 
